Entries after “also recorded” stand apart in the source; their conditions may differ.
Legend:
[1] = tested on: SERT Ala56 mice; test: Tube Test for Social Dominance; type: in vivo; details: for SERT Ala56 mediated social deficits in the Tube Test: SERT Ala56 mice; for Effect of treatment on its own in the Tube Test: wildtype mice, chronic treatment 1 week
Excerpt: FIG. 9. […] SERT Ala56 mice display social deficits in the Tube Test compared to their SERT Gly56 littermates.
FIG. 10. […] SERT Ala56 mice display social deficits in the Tube Test compared to their SERT Gly56 littermates.
FIG. 11. […] Chi Square analysis with Yate's Correction. n.s.=not significant, *p<0.05, ***p<0.001
FIG. 12. […] Chi Square analysis with Yate's Correction. n.s.=not significant, *p<0.05, ***p<0.001
Chi Square analysis with Yate's Correction. n.s.=not significant, *p<0.05, ***p<0.001
As described herein, SERT Ala56 mice have deficits in social behaviors in the Tube Test for Social Dominance. Studies were also conducted to determine the effect of specific p38 MAPK inhibitors on social deficits in the animal of ASD. Mice were treated with either saline or a specific p38 MAPK inhibitor for one week.
SERT Ala56 mice display social deficits in the Tube Test compared to their SERT Gly56 littermates.

[2] = tested on: SERT Ala56 mice; test: 8-OH-DPAT-induced hypothermia (5-HT1A receptor hypersensitivity); type: in vivo
Excerpt: Similarly, both drugs normalize 5-HT1A receptor hypersensitivity seen in adult SERT Ala56 mice as monitored by 8-OHDPAT induced hypothermia responses. […] […].

[3] = tested on: SERT Ala56 mice; test: DOI-induced head twitch (5-HT2A receptor hypersensitivity); type: in vivo; details: for CNS 5-HT2A receptor hypersensitivity (DOI-induced head-twitch response): adult SERT Ala56 mice, chronic administration, dose not stated; for SERT Ala56-mediated increases in DOI-induced head twitches: QD×1 wk
Excerpt: Two-Way ANOVA, followed by post-hoc Bonferroni's multiple comparison tests. *p<0.05, **p<0.01
FIG. 20A-B. […] Two-Way ANOVA, followed by post-hoc Bonferroni's multiple comparison tests. **p<0.01, ***p<0.001

[4] = tested on: SERT Ala56 mice and WT littermates; test: Biogenic monoamine levels within the CNS by HPLC; type: in vivo; details: i.p., QD×1 wk
Excerpt: FIG. 17A-C. […] Respective brain sections were flash frozen and monoamine levels determined by HPLC. […] 5-Hydoxytryptamine (5-HT), Dopamine (DA), Norepinephrine (NE)
FIG. 19A-C. […] Respective brain sections were flash frozen and monoamine levels determined by HPLC. […] 5-Hydoxytryptamine (5-HT), Dopamine (DA), Norepinephrine (NE)
Respective brain sections were flash frozen and monoamine levels determined by HPLC.

[5] = tested on: IL-1β; details: in vivo treatment; cited from earlier work
[6] = tested on: SERT Ala56 mice and WT counterparts; test: Midbrain expression of SERT after chronic treatment; type: in vivo; details: 10 mg/kg, QD, i.p.×1 wk; SERT Ala56 mice or WT counterparts
[7] = chronic treatment for 1 week, dose not stated
[8] = chronic 10 mg/kg, i.p., DOI 1.0 mg/kg

CN1CCN(c2cc(-c3ccncc3)c(-c3ccc4ccccc4c3)nn2)CC1 [MW150]
SERT Ala56 mediated social deficits in the Tube Test ([1]; 5 mg/kg, i.p., QD×1 wk): attenuates SERT Ala56-mediated social deficits; also recorded: reverses these social deficits | SERT Ala56 mediated social deficits in the Tube Test ([1]; 10 mg/kg, i.p., QD×1 wk): attenuates SERT Ala56-mediated social deficits | SERT Ala56 mediated social deficits in the Tube Test [1, 7]: reverses these social deficits; also recorded: reverse social behavior deficits | Effect of treatment on its own in the Tube Test [1]: no effects on its own; also recorded: Neither dose of MW150 was found to exert any effects on its own; also recorded: Neither dose of MW108 or MW150 was found to exert any effects on their own | SERT Ala56-mediated potentiation of 8-OH-DPAT-induced hypothermia ([2]; 5 mg/kg, i.p. QD×1 wk): attenuates | SERT Ala56-mediated potentiation of 8-OH-DPAT-induced hypothermia ([2]; 10 mg/kg, i.p. QD×1 wk): attenuates | SERT Ala56-mediated increases in DOI-induced head twitch ([3]; acute, single treatment 5 mg/kg, i.p., DOI 1.0 mg/kg): not capable of reversing; also recorded: failed to mitigate | CNS 5-HT2A receptor hypersensitivity (DOI-induced head-twitch response) [3]: normalize CNS 5-HT2A receptor hypersensitivity | SERT Ala56-mediated increases in DOI-induced head twitches ([3]; chronic 5 mg/kg, i.p., DOI 1.0 mg/kg): mitigates | SERT Ala56-mediated increases in DOI-induced head twitches [3, 8]: mitigates | Biogenic monoamine levels (5-HT, DA, NE) in midbrain, hippocampal or frontal cortex samples ([4]; 5 mg/kg): No differences between genotype or treatment group were found

CN(C)c1cc(-c2ccncc2)c(-c2ccc3ccccc3c2)nn1 [MW108]
LPS-induced increases in IL-1β within the CNS [5]: attenuate lipopolysaccharide (LPS)-induced increases in IL-1β | SERT Ala56 mediated social deficits in the Tube Test ([1]; 10 mg/kg, i.p., QD×1 wk): dose-dependently attenuate | SERT Ala56 mediated social deficits in the Tube Test [1, 7]: reverses these social deficits; also recorded: reverse social behavior deficits | Effect of treatment on its own in the Tube Test [1]: no effect on its own; also recorded: Neither dose of MW108 was found to exert any effects on its own; also recorded: Neither dose of MW108 or MW150 was found to exert any effects on their own | SERT Ala56-mediated potentiation of 8-OH-DPAT-induced hypothermia ([2]; i.p., QD×1 wk, dose not stated): reduced this effect, albeit insignificantly | CNS 5-HT2A receptor hypersensitivity (DOI-induced head-twitch response) [3]: normalize CNS 5-HT2A receptor hypersensitivity | SERT Ala56-mediated increases in DOI-induced head twitches [3, 8]: dose-dependently attenuates | Midbrain expression of SERT [6]: No changes in SERT expression | Biogenic monoamine levels (5-HT, DA, NE) in midbrain, hippocampal or frontal cortex samples ([4]; 10 mg/kg): No differences between genotype or treatment group were found
